# In patent US20250085273A1, “NOVEL RAPID DRUG DISCOVERY FOR SEPSIS AND AGENTS FOR USE AS SEPSIS THERAPY” (priority 2023, published 2025):
# Where two headings read alike, the source gives them in different places.
# Assays:
# [1] = tested on: 5-dpf zebrafish larvae challenged with P. aeruginosa LPS 60 μg/mL; format: in vivo, Danio rerio; conditions: compound 10 μM
# [2] = tested on: larval zebrafish locomotor behavior; format: in vivo; conditions: in vivo
# Excerpt: This assay is a modified version of the larval zebrafish light dark transition assay with an added UV light (wavelength=295 nm) phase to capture any compound specific neurological effects to UV light. (Basnet et al., 2019, Kokel et al., 2013, Peng et al., 2016). The light period assesses deviations from normal locomotor behavior while the rapid transition to dark provides a measure of stress response by identifying any deviations from the normal heightened locomotor activity caused by the transition to dark. The neurobehavioral assay used a custom trial control script created by Noldus Ethovision XT 15, and it was executed in a Noldus DanioVision system. Zebrafish larvae in microplates were allowed to habituate in the DanioVision system for 5 minutes under white light conditions prior to the start of the test. The neurobehavioral assay consisted of three phases: a 3-minute light phase (white light), a 3-minute dark phase (no light) and a 5 second UV phase (UV light only). The Danio Vision system captured larval zebrafish movement throughout this assay at 30 frames per second.
# LC50s for the LPS tests were determined using the Trimmed Spearmen-Karber method (Hamilton et al., 1977). The tail edema and mortality data from the initial and confirmatory drug testing was analyzed using GraphPad Prism 9 using Fisher's Exact Test. Each drug treatment group was compared pairwise with the on-board positive control group on each test plate. Statistical significance was determined with values of p≤0.05. Neurological behavioral testing data was analyzed by Ethovision software that produced an activity analysis profile per frame for each well of the 96 well plates. Any dead embryos were removed from the data set, and the remaining data set was imported into Excel. The offset function in Excel was used to average the percentage of pixel change per 0.1 s for each plate. […] The behavioral data was then statistically analyzed by drug per phase using a 2 tailed t-test to determine statistical significance p≤0.01.
# [3] = tested on: 5-dpf zebrafish challenged with K. Pneumoniae LPS (45 μg/mL); assay: Challenge with K. Pneumoniae LPS (45 μg/mL), 5-dpf zebrafish; format: in vivo, Danio rerio
# Procedure: These tests followed the same methods described in the 5-dpf zebrafish confirmatory testing, but K. Pneumoniae LPS (45 μg/mL final in well concentration) was used instead of P. aeruginosa LPS.
# [4] = target: 5-HT2B (Homo sapiens, UniProt P41595); conditions: read-out: affinity (Ki) 5-HT2B; cited from earlier work
# Chain of 5-HT2B (P41595 whole entry, species assumed): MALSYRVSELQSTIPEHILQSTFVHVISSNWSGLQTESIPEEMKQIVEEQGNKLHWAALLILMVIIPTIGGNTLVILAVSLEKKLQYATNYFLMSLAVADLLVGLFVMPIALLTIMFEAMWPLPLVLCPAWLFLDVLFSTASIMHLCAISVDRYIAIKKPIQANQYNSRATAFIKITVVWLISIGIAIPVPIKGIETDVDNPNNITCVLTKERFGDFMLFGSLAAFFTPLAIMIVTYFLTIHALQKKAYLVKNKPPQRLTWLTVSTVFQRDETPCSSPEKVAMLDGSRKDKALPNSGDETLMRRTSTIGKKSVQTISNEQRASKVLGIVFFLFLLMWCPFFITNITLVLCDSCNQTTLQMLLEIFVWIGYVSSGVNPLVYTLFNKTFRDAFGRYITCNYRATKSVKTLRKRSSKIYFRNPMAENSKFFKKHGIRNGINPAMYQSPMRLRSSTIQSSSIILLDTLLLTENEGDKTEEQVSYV
# [5] = target: T1, noradrenergic α1A (Homo sapiens, UniProt P35348); conditions: read-out: affinity (Ki) α1A; cited from earlier work
# T1 sequence (P35348 1-466): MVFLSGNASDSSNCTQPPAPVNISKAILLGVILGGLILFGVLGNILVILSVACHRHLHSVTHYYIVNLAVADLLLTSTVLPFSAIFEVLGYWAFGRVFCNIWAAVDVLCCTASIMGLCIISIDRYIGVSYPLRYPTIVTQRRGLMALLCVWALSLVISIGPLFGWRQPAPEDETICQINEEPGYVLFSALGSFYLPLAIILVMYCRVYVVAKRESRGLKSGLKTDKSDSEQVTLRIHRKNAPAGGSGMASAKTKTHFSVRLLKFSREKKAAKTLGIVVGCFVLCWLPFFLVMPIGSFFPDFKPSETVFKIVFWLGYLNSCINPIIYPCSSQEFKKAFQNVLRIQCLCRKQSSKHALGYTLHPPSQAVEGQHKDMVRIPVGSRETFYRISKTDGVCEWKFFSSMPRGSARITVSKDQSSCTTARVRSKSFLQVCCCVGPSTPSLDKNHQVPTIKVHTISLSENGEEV
# [6] = target: T2, α1D (Homo sapiens, UniProt P25100); conditions: read-out: affinity (Ki) α1D; cited from earlier work
# T2 sequence (P25100 1-572): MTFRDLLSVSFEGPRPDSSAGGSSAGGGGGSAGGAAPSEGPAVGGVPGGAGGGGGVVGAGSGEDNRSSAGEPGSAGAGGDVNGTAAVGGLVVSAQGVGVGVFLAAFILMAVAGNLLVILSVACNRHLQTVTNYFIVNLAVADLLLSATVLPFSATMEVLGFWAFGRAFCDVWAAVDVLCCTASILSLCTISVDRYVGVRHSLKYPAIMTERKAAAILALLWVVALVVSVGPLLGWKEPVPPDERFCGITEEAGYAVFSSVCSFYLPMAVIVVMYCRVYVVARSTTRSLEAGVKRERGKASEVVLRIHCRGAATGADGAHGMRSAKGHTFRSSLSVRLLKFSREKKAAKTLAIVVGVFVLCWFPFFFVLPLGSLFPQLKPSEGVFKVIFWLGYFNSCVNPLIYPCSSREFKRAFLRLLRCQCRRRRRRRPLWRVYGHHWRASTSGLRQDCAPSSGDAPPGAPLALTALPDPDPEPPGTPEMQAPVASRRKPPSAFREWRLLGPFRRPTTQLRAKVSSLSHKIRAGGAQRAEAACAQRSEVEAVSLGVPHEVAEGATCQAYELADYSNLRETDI
# [7] = target: T3, α2C (Homo sapiens, UniProt P18825); conditions: read-out: affinity (Ki) α2C; cited from earlier work
# T3 sequence (P18825 1-462): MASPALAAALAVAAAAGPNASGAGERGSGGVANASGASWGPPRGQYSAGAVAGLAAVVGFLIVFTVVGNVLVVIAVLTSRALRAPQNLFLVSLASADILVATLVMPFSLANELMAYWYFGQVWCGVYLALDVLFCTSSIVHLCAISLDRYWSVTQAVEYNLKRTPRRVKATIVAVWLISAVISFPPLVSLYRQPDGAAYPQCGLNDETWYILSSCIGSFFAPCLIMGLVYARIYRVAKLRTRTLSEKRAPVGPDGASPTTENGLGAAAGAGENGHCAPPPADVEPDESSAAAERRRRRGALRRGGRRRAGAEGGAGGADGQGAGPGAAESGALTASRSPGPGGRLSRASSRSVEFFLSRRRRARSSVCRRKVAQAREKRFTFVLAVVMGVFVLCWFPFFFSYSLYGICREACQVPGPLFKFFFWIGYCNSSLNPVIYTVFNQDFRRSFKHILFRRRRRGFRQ
# [8] = target: histamine H1 receptor (Homo sapiens, UniProt P35367); conditions: read-out: affinity for histamine H1 receptor; cited from earlier work
# Chain of histamine H1 receptor (P35367 whole entry, species assumed): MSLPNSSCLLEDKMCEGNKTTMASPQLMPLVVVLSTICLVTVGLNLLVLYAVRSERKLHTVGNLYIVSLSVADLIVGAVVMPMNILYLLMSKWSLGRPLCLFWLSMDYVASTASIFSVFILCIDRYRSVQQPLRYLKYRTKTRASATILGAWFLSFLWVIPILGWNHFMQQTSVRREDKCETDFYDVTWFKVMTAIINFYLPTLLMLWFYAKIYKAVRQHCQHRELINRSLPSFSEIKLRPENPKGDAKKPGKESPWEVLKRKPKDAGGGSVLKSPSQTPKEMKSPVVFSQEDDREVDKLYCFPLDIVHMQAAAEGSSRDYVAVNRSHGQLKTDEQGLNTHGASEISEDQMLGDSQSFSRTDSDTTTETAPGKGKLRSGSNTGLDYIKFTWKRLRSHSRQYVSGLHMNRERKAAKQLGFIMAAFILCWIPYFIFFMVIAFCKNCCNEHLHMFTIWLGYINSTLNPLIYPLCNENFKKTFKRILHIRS
smiles,measurement,setting,value
"O=c1ccc2ccc(OCCCCN3CCN(c4cccc5sccc45)CC3)cc2[nH]1 [Compound 45, Brexpiprazole]",5 dpf Embryos Percent Rescue (Mort + Tail Edema),[1]; 5-dpf larvae,94%
same,rescue of tail edema and mortality (sepsis rescue rate) at 5-dpf,[1],94%
same,rescue of tail edema and mortality (sepsis rescue rate) at 5-dpf,[1]; listed as brexpiprazole,100%
same,activity during the dark phase,[2],not significant
same,rescue of tail edema and mortality,[3],100%
same,Ki,[4],1.9 nM
same,Ki,[5],3.8 nM
same,Ki,[6],2.6 nM
same,Ki,[7],0.59 nM
same,Ki,[8],19 nM
